# Target: SARS-CoV-2 RBD (Severe acute respiratory syndrome coronavirus 2, UniProt P0DTC2)
# Experiment: biochemical
# Format: binding
compound,measurement,value
"O=c1c(O)c(-c2ccc(O)c(O)c2)oc2cc(O)cc(O)c12 [compound 4, quercetin]",Kd,75.6 µM

# Source: PMC9167803 (Acta Pharmaceutica Sinica. B, 2022)
